The conditions of the series: for speed of sound / mass density: 101.33 kPa, Liquid; for speed of sound: Pulse-echo method; for mass density: Vibrating tube method; for surface tension liquid-gas: Drop volume.

The values that follow come from the NIST ThermoML archive (doi:10.1021/je800594e).

The structures appear in SMILES notation. Numbers after ± are expanded uncertainties.

Broadly, the speed of sound is how fast a sound wave travels through the sample. As usually defined, the mass density is mass per unit of volume. Usually surface tension liquid-gas stands for the work needed to enlarge the surface of a liquid by unit area. For `Cc1ccc(C)cc1` [1,4-dimethylbenzene], the speed of sound is on record as 1350.7 ± 1.6 m/s (288.15 K); 1329.6 ± 1.6 m/s (293.15 K); 1308.4 ± 1.5 m/s (298.15 K); 1287.4 ± 1.5 m/s (303.15 K); 1266.4 ± 1.5 m/s (308.15 K). The mass density (288.15 K) worked out at 865.2 ± 0.24 kg/m3; the mass density (293.15 K) was 860.9 ± 0.24 kg/m3; the mass density (298.15 K) was found to be 856.58 ± 0.24 kg/m3; the mass density (303.15 K) is recorded as 852.21 ± 0.24 kg/m3; the mass density (308.15 K) is 847.83 ± 0.24 kg/m3. For the setting “298.15 K”, the surface tension liquid-gas is listed as 27.43 ± 0.2 mN/m.
Turning to `COC(=O)OC` [dimethyl carbonate], the speed of sound runs as follows: (288.15 K) 1240.7 ± 1.5 m/s; (293.15 K) 1218.1 ± 1.5 m/s; (298.15 K) 1195.1 ± 1.5 m/s; (303.15 K) 1173.2 ± 1.5 m/s; (308.15 K) 1151.5 ± 1.5 m/s. Further, the mass density runs as follows: (288.15 K) 1076.64 ± 0.3 kg/m3; (293.15 K) 1070.01 ± 0.29 kg/m3; (298.15 K) 1063.39 ± 0.28 kg/m3; (303.15 K) 1056.78 ± 0.28 kg/m3; (308.15 K) 1050.15 ± 0.27 kg/m3. Also, the surface tension liquid-gas (298.15 K) is on record as 28.08 ± 0.21 mN/m.
In the case of `CCCCCCCC` [octane], the speed of sound worked out at 1213.6 ± 1.5 m/s (288.15 K); 1192.9 ± 1.5 m/s (293.15 K); 1171.9 ± 1.5 m/s (298.15 K); 1150.9 ± 1.5 m/s (303.15 K); 1130.3 ± 1.5 m/s (308.15 K). In addition, the mass density reads like this: (288.15 K) 706.58 ± 0.25 kg/m3; (293.15 K) 702.57 ± 0.25 kg/m3; (298.15 K) 698.55 ± 0.25 kg/m3; (303.15 K) 694.48 ± 0.25 kg/m3; (308.15 K) 690.42 ± 0.25 kg/m3. Also, the surface tension liquid-gas (298.15 K) worked out at 20.99 ± 0.17 mN/m.
